Results: publication PMC7179445, “Anticancer Activities of Newly Synthesized Chiral Macrocyclic Heptapeptide Candidates” (Molecules, 2020)
Read-outs that look alike come from different tables or passages of the source.

What was measured:
MCF-7 cells = format: cell-based, human; conditions: for IC50: 72 h
Method: (§1) The cytotoxic effects of the prepared compounds on MCF-7 and HepG2 cells were investigated with the help of standard MTT assay. […] Plates were then further incubated for 72 h. Afterwards, 20 μL of MTT (5 mg/mL in PBS) were pipetted to the wells and incubated for another 4 h. The medium was then aspirated and 100 μL DMSO were added/well. Absorbance was read using a microplate reader at 570 nm. IC50 values, used to compare compound toxicity with control cells, were obtained from linear regression of the dose–response curve using Origin® 6.1 software (OriginLab Corporation, Northampton, MA, USA). […] Data were represented as mean ± SD.

HepG2 cells = format: cell-based, human
Method: as §1

Compound	IC50 (MCF-7 cells) [µM]	IC50 (HepG2 cells; 72 h) [µM]	cytotoxic activity against MCF-7 cells (in words) (MCF-7 cells)	cytotoxic activity against HepG2 cells (in words) (HepG2 cells)	IC50 (HepG2 cells; read-out: IC50 (compound concentration required to inhibit the cell viability by 50%), HepG-2, hepatocellular cancer cell line HepG2, MTT assay, RPMI 1640, 72 h incubation, absorbance 570 nm, mean ± SD, triplicates) [µM]
CC[C@H](C)[C@H](NC(=O)[C@@H](NC(=O)c1cccc(C(=O)N[C@H](C(=O)N[C@H](C(=O)O)[C@@H](C)CC)[C@@H](C)CC)n1)[C@@H](C)CC)C(=O)O [1a]	15.3 ± 0.672	6.62 ± 0.353			
CC[C@H](C)[C@H](NC(=O)c1cccc(C(=O)N[C@H](C(=O)N[C@@H](Cc2ccccc2)C(=O)O)[C@@H](C)CC)n1)C(=O)N[C@@H](Cc1ccccc1)C(=O)O [1b]	10.9 ± 0.534	8.72 ± 0.474			
CC[C@H](C)[C@H](NC(=O)[C@H](Cc1ccccc1)NC(=O)c1cccc(C(=O)N[C@@H](Cc2ccccc2)C(=O)N[C@H](C(=O)O)[C@@H](C)CC)n1)C(=O)O [1c]	34.9 ± 1.27	17 ± 0.965			
CC[C@H](C)[C@H](NC(=O)c1cccc(C(=O)N[C@H](C(=O)N[C@H](C(=O)N[C@@H](Cc2ccccc2)C(=O)OC)[C@@H](C)CC)[C@@H](C)CC)n1)C(=O)N[C@H](C(=O)N[C@@H](Cc1ccccc1)C(=O)OC)[C@@H](C)CC [2a, N^α-Dipicolinoyl-bis[L-ILe-L-ILe-L-Phe-methyl ester]]	> 100	17.5 ± 0.876			
CC[C@H](C)[C@H](NC(=O)c1cccc(C(=O)N[C@H](C(=O)N[C@@H](Cc2ccccc2)C(=O)N[C@H](C(=O)OC)[C@@H](C)CC)[C@@H](C)CC)n1)C(=O)N[C@@H](Cc1ccccc1)C(=O)N[C@H](C(=O)OC)[C@@H](C)CC [2b, N^α-Dipicolinoyl-bis[L-ILe-L-L-Phe-ILe-methyl ester]]	20.7 ± 0.974	18.7 ± 0.988			
CC[C@H](C)[C@H](NC(=O)[C@H](Cc1ccccc1)NC(=O)c1cccc(C(=O)N[C@@H](Cc2ccccc2)C(=O)N[C@H](C(=O)N[C@H](C(=O)OC)[C@@H](C)CC)[C@@H](C)CC)n1)C(=O)N[C@H](C(=O)OC)[C@@H](C)CC [2c, N^α-Dipicolinoyl-bis[L-Phe-L-ILe-L-ILe-methyl ester]]	24.9 ± 1.08	19.3 ± 1.06			
CC[C@H](C)[C@H](NC(=O)c1cccc(C(=O)N[C@H](C(=O)N[C@H](C(=O)N[C@@H](Cc2ccccc2)C(=O)O)[C@@H](C)CC)[C@@H](C)CC)n1)C(=O)N[C@H](C(=O)N[C@@H](Cc1ccccc1)C(=O)O)[C@@H](C)CC [3a, N^α-Dipicolinoyl-bis[L-ILe-L-ILe-L-Phe-carboxylic acid]]	10.3 ± 0.546	8.06 ± 0.863			
CC[C@H](C)[C@H](NC(=O)[C@H](Cc1ccccc1)NC(=O)[C@@H](NC(=O)c1cccc(C(=O)N[C@H](C(=O)N[C@@H](Cc2ccccc2)C(=O)N[C@H](C(=O)O)[C@@H](C)CC)[C@@H](C)CC)n1)[C@@H](C)CC)C(=O)O [3b, N^α-Dipicolinoyl-bis[L-ILe-L-Phe-L-ILe-carboxylic acid]]	9.91 ± 0.491	9.66 ± 0.792			
CC[C@H](C)[C@H](NC(=O)[C@@H](NC(=O)[C@H](Cc1ccccc1)NC(=O)c1cccc(C(=O)N[C@@H](Cc2ccccc2)C(=O)N[C@H](C(=O)N[C@H](C(=O)O)[C@@H](C)CC)[C@@H](C)CC)n1)[C@@H](C)CC)C(=O)O [3c, N^α-Dipicolinoyl-bis[L-Phe-L-ILe-L-ILe-carboxylic acid]]	22.9 ± 0.992	17 ± 1.16			
CC[C@H](C)[C@@H]1NC(=O)c2cccc(n2)C(=O)N[C@@H]([C@@H](C)CC)C(=O)N[C@@H]([C@@H](C)CC)C(=O)N[C@@H](Cc2ccccc2)C(=O)N[C@H](C(=O)OC)CCCCNC(=O)[C@H](Cc2ccccc2)NC(=O)[C@H]([C@@H](C)CC)NC1=O [4a, Cyclo-(N^α-dipicolinoyl)-bis-[(L-ILe-L-ILe-L-Phe)-L-Lysmethyl ester]]	9.3 ± 0.536	7.31 ± 0.595			
CC[C@H](C)[C@@H]1NC(=O)c2cccc(n2)C(=O)N[C@@H]([C@@H](C)CC)C(=O)N[C@@H](Cc2ccccc2)C(=O)N[C@@H]([C@@H](C)CC)C(=O)N[C@H](C(=O)OC)CCCCNC(=O)[C@H]([C@@H](C)CC)NC(=O)[C@H](Cc2ccccc2)NC1=O [4b, Cyclo-(N^α-dipicolinoyl)-bis-[(L-ILe-L-Phe-L-Ile)-L-Lysmethyl ester]]	9.19 ± 0.545	7.17 ± 0.892			
CC[C@H](C)[C@@H]1NC(=O)[C@H](Cc2ccccc2)NC(=O)c2cccc(n2)C(=O)N[C@@H](Cc2ccccc2)C(=O)N[C@@H]([C@@H](C)CC)C(=O)N[C@@H]([C@@H](C)CC)C(=O)N[C@H](C(=O)OC)CCCCNC(=O)[C@H]([C@@H](C)CC)NC1=O [4c, Cyclo-(N^α-dipicolinoyl)-bis-[(L-Phe-L-ILe-L-Ile)-L-Lysmethyl ester]]	19.6 ± 1.03	9.63 ± 0.932			
CC[C@H](C)[C@@H]1NC(=O)c2cccc(n2)C(=O)N[C@@H]([C@@H](C)CC)C(=O)N[C@@H]([C@@H](C)CC)C(=O)N[C@@H](Cc2ccccc2)C(=O)N[C@H](C(=O)O)CCCCNC(=O)[C@H](Cc2ccccc2)NC(=O)[C@H]([C@@H](C)CC)NC1=O [5a, Cyclo-(N^α-dipicolinoyl)-bis-[(L-ILe-L-Ile-L-Phe)-L-Lyscarboxylic acid]]		7.12 ± 0.79			
CC[C@H](C)[C@@H]1NC(=O)c2cccc(n2)C(=O)N[C@@H]([C@@H](C)CC)C(=O)N[C@@H](Cc2ccccc2)C(=O)N[C@@H]([C@@H](C)CC)C(=O)N[C@H](C(=O)O)CCCCNC(=O)[C@H]([C@@H](C)CC)NC(=O)[C@H](Cc2ccccc2)NC1=O [5b, Cyclo-(N^α-dipicolinoyl)-bis-[(L-ILe-L-Phe-L-Ile)-L-Lyscarboxylic acid]]		7.09 ± 0.784			
CC[C@H](C)[C@@H]1NC(=O)[C@H](Cc2ccccc2)NC(=O)c2cccc(n2)C(=O)N[C@@H](Cc2ccccc2)C(=O)N[C@@H]([C@@H](C)CC)C(=O)N[C@@H]([C@@H](C)CC)C(=O)N[C@H](C(=O)O)CCCCNC(=O)[C@H]([C@@H](C)CC)NC1=O [5c, Cyclo-(N^α-dipicolinoyl)-bis-[(L-Phe-L-ILe-L-Ile)-L-Lyscarboxylic acid]]		9.57 ± 1.14	did not show any activity	only active against HepG2 cells	
N.N.[Cl][Pt][Cl] [Cisplatin, reference compound]					10.9 ± 0.962
